Measurements: patent US20070049593A1 (priority 2004, published 2007)
Where a name gives a salt, the structure may show the parent alone.

The molecules below were run against T1, HCV polymerase (Hepatitis C virus genotype 1b, UniProt P26663) (assay: biochemical). Conditions: not given.
T1 construct: a region encoding NS5B (J Virol 1991 March, 65(3), 1105-13, 544 amino acids after deletion of 47 amino acids on the C-terminal); 6xHis (C); made in house; host or cells: Escherichia coli
Set-up: species or system HCV BK strain
Outline: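 His-tagged NS5B (BK strain, 47-aa C-terminal deletion, E. coli-expressed) at 0.5 μg/ml copied 5 μg/ml run-off RNA bearing the HCV 3′ UTR with 2 μM UTP plus [3H]UTP, 50 μM ATP/GTP, in pH 7.5 Tris with 5 mM MgCl2, 25 °C, 90 min. TCA-precipitated RNA was counted and IC50 calculated.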

T1 sequence (P26663 2420-2963): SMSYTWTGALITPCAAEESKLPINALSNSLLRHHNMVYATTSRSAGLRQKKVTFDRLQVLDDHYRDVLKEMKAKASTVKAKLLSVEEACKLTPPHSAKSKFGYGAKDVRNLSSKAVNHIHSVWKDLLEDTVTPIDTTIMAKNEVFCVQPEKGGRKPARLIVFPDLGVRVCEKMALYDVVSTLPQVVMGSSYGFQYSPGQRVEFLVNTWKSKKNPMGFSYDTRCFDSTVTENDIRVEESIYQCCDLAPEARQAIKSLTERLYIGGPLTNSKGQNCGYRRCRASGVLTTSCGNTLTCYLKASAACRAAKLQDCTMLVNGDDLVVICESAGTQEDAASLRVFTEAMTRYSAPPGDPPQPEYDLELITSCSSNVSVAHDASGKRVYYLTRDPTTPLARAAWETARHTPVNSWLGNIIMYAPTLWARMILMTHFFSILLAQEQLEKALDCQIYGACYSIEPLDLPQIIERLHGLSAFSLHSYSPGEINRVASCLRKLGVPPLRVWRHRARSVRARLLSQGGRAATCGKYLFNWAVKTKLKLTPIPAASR

Compound | IC50 [µM]
COC1CCCN(CCN2CCn3c(c(C4CCCCC4)c4ccc(C(=O)O)cc43)-c3ccc(C)cc32)C1 (centres unmarked) [Example 1-266, 13-cyclohexyl-5-[2-(3-methoxypiperidin-1-yl)ethyl]-3-methyl-6,7-dihydro-5H-benzo[5,6][1,4]diazepino[7,1-a]indole-10-carboxylic acid dihydrochloride] | < 0.1
CCCC1CCCN(CCN2CCn3c(c(C4CCCCC4)c4ccc(C(=O)O)cc43)-c3ccc(Cl)cc32)C1 (centres unmarked) [Example 1-267, 3-chloro-13-cyclohexyl-5-[2-(3-propylpiperidin-1-yl)ethyl]-6,7-dihydro-5H-benzo[5,6][1,4]diazepino[7,1-a]indole-10-carboxylic acid dihydrochloride] | < 0.1
O=C(O)c1ccc2c(C3CCCCC3)c3n(c2c1)CCN(CCCN1CCCC1)c1cc(Cl)ccc1-3 [Example 1-269, 3-chloro-13-cyclohexyl-5-[3-(pyrrolidin-1-yl)propyl]-6,7-dihydro-5H-benzo[5,6][1,4]diazepino[7,1-a]indole-10-carboxylic acid dihydrochloride] | < 0.1
O=C(O)c1ccc2c(C3CCCCC3)c3n(c2c1)CCN(CCCN1CCCOCC1)c1cc(Cl)ccc1-3 [Example 1-270, 3-chloro-13-cyclohexyl-5-[3-(1,4-oxazepan-4-yl)propyl]-6,7-dihydro-5H-benzo[5,6][1,4]diazepino[7,1-a]indole-10-carboxylic acid dihydrochloride] | < 0.1
COCC1CCCCN1CCN1CCn2c(c(C3CCCCC3)c3ccc(C(=O)O)cc32)-c2ccccc21 (centres unmarked) [Example 1-271, 13-cyclohexyl-5-[2-(2-methoxymethylpiperidin-1-yl)ethyl]-6,7-dihydro-5H-benzo[5,6][1,4]diazepino[7,1-a]indole-10-carboxylic acid dihydrochloride] | < 0.1
CCC1CCCN(CCN2CCn3c(c(C4CCCCC4)c4ccc(C(=O)O)cc43)-c3ccc(C)cc32)C1 (centres unmarked) [Example 1-272, 13-cyclohexyl-5-[2-(3-ethylpiperidin-1-yl)ethyl]-3-methyl-6,7-dihydro-5H-benzo[5,6][1,4]diazepino[7,1-a]indole-10-carboxylic acid dihydrochloride] | < 0.1
CCN1CCCC(CCN2CCn3c(c(C4CCCCC4)c4ccc(C(=O)O)cc43)-c3ccc(C)cc32)C1 (centres unmarked) [Example 1-273, 13-cyclohexyl-5-[2-(1-ethylpiperidin-3-yl)ethyl]-3-methyl-6,7-dihydro-5H-benzo[5,6][1,4]diazepino[7,1-a]indole-10-carboxylic acid dihydrochloride] | < 0.1
Cc1ccc2c(c1)N(CCC1CCCN(C)C1)CCn1c-2c(C2CCCCC2)c2ccc(C(=O)O)cc21 (centres unmarked) [Example 1-274, 13-cyclohexyl-3-methyl-5-[2-(1-methylpiperidin-3-yl)ethyl]-6,7-dihydro-5H-benzo[5,6][1,4]diazepino[7,1-a]indole-10-carboxylic acid dihydrochloride] | < 0.1
Cc1ccc2c(c1)N(CCC1CCCN(C(C)C)C1)CCn1c-2c(C2CCCCC2)c2ccc(C(=O)O)cc21 (centres unmarked) [Example 1-275, 13-cyclohexyl-5-[2-(1-isopropylpiperidin-3-yl)ethyl]-3-methyl-6,7-dihydro-5H-benzo[5,6][1,4]diazepino[7,1-a]indole-10-carboxylic acid dihydrochloride] | < 0.1
CCOc1ccc2c(c1)N(CCN1CCCCC1)CCn1c-2c(C2CCCCC2)c2ccc(C(=O)O)cc21 [Example 1-276, 13-cyclohexyl-3-ethoxy-5-[2-(piperidin-1-yl)ethyl]-6,7-dihydro-5H-benzo[5,6][1,4]diazepino[7,1-a]indole-10-carboxylic acid dihydrochloride] | < 0.1
O=C(O)c1ccc2c(C3CCCCC3)c3n(c2c1)CCN(CCN1CCCCCCC1)c1cc(Cl)ccc1-3 [Example 1-277, 5-[2-(azocan-1-yl)ethyl]-3-chloro-13-cyclohexyl-6,7-dihydro-5H-benzo[5,6][1,4]diazepino[7,1-a]indole-10-carboxylic acid dihydrochloride] | < 0.1
Cc1ccc2c(c1)N(CCN1CCCCCCC1)CCn1c-2c(C2CCCCC2)c2ccc(C(=O)O)cc21 [Example 1-278, 5-[2-(azocan-1-yl)ethyl]-13-cyclohexyl-3-methyl-6,7-dihydro-5H-benzo[5,6][1,4]diazepino[7,1-a]indole-10-carboxylic acid dihydrochloride] | < 0.1
CC(=O)N1CCC(N(C)CCN2CCn3c(c(C4CCCCC4)c4ccc(C(=O)O)cc43)-c3ccccc32)CC1 [Example 1-279, 5-{2-[N-(1-acetylpiperidin-4-yl)-N-methylamino]ethyl}-13-cyclohexyl-6,7-dihydro-5H-benzo[5,6][1,4]diazepino[7,1-a]indole-10-carboxylic acid monohydrochloride] | < 0.1
CN(CCN1CCn2c(c(C3CCCCC3)c3ccc(C(=O)O)cc32)-c2ccccc21)C1CCN(S(C)(=O)=O)CC1 [Example 1-280, 13-cyclohexyl-5-{2-[N-(1-methanesulfonylpiperidin-4-yl)-N-methylamino]ethyl}-6,7-dihydro-5H-benzo[5,6][1,4]diazepino[7,1-a]indole-10-carboxylic acid] | < 0.1
COC(=O)N1CCC(N(C)CCN2CCn3c(c(C4CCCCC4)c4ccc(C(=O)O)cc43)-c3ccccc32)CC1 [Example 1-281, 13-cyclohexyl-5-{2-[N-(1-methoxycarbonylpiperidin-4-yl)-N-methylamino]ethyl}-6,7-dihydro-5H-benzo[5,6][1,4]diazepino[7,1-a]indole-10-carboxylic acid monohydrochloride] | < 0.1
CN1CCC(N(C)CCN2CCn3c(c(C4CCCCC4)c4ccc(C(=O)O)cc43)-c3ccccc32)CC1 [Example 1-282, 13-cyclohexyl-5-{2-[N-methyl-N-(1-methylpiperidin-4-yl)amino]ethyl}-6,7-dihydro-5H-benzo[5,6][1,4]diazepino[7,1-a]indole-10-carboxylic acid dihydrochloride] | < 0.1
CN(CCN1CCn2c(c(C3CCCCC3)c3ccc(C(=O)O)cc32)-c2ccccc21)C1CCOCC1 [Example 1-283, 13-cyclohexyl-5-{2-[N-methyl-N-(tetrahydropyran-4-yl)amino]ethyl}-6,7-dihydro-5H-benzo[5,6][1,4]diazepino[7,1-a]indole-10-carboxylic acid] | < 0.1
CN1CCC(N(C)CCN2CCn3c(c(C4CCCCC4)c4ccc(C(=O)O)cc43)-c3ccccc32)C1 (centres unmarked) [Example 1-284, 13-cyclohexyl-5-{2-[N-methyl-N-(1-methylpyrrolidin-3-yl)amino]ethyl}-6,7-dihydro-5H-benzo[5,6][1,4]diazepino[7,1-a]indole-10-carboxylic acid dihydrochloride] | < 0.1
CN(CCN1CCn2c(c(C3CCCCC3)c3ccc(C(=O)O)cc32)-c2ccccc21)C1CCNC1 (centres unmarked) [Example 1-285, 13-cyclohexyl-5-{2-[N-methyl-N-(pyrrolidin-3-yl)amino]ethyl}-6,7-dihydro-5H-benzo[5,6][1,4]diazepino[7,1-a]indole-10-carboxylic acid dihydrochloride] | < 0.1
CCN1CCCN(CCN2CCn3c(c(C4CCCCC4)c4ccc(C(=O)O)cc43)-c3ccccc32)CC1 [Example 1-286, 13-cyclohexyl-5-[2-(4-ethyl-1,4-diazepan-1-yl)ethyl]-6,7-dihydro-5H-benzo[5,6][1,4]diazepino[7,1-a]indole-10-carboxylic acid trihydrochloride] | < 0.1
Cc1ccc2c(c1)N(CCC1CCCCN1C)CCn1c-2c(C2CCCCC2)c2ccc(C(=O)O)cc21 (centres unmarked) [Example 1-287, 13-cyclohexyl-3-methyl-5-[2-(1-methylpiperidin-2-yl)ethyl]-6,7-dihydro-5H-benzo[5,6][1,4]diazepino[7,1-a]indole-10-carboxylic acid dihydrochloride] | < 0.1
CCN1CCCCC1CCN1CCn2c(c(C3CCCCC3)c3ccc(C(=O)O)cc32)-c2ccc(C)cc21 (centres unmarked) [Example 1-288, 13-cyclohexyl-5-[2-(1-ethylpiperidin-2-yl)ethyl]-3-methyl-6,7-dihydro-5H-benzo[5,6][1,4]diazepino[7,1-a]indole-10-carboxylic acid dihydrochloride] | < 0.1
CSc1ccc2c(c1)N(CCN1CCCCCC1)CCn1c-2c(C2CCCCC2)c2ccc(C(=O)O)cc21 [Example 1-289, 5-[2-(azepan-1-yl)ethyl]-13-cyclohexyl-3-methylsulfanyl-6,7-dihydro-5H-benzo[5,6][1,4]diazepino[7,1-a]indole-10-carboxylic acid dihydrochloride] | < 0.1
CCC1CN(CCN2CCn3c(c(C4CCCCC4)c4ccc(C(=O)O)cc43)-c3ccc(Cl)cc32)CCO1 (centres unmarked) [Example 1-290, 3-chloro-13-cyclohexyl-5-[2-(2-ethylmorpholin-4-yl)ethyl]-6,7-dihydro-5H-benzo[5,6][1,4]diazepino[7,1-a]indole-10-carboxylic acid dihydrochloride] | < 0.1
CCC1CN(CCN2CCn3c(c(C4CCCCC4)c4ccc(C(=O)O)cc43)-c3ccc(C)cc32)CCO1 (centres unmarked) [Example 1-291, 13-cyclohexyl-5-[2-(2-ethylmorpholin-4-yl)ethyl]-3-methyl-6,7-dihydro-5H-benzo[5,6][1,4]diazepino[7,1-a]indole-10-carboxylic acid dihydrochloride] | < 0.1

Same assay, conditions: 25° C., 90 min; [5,6-3H]UTP incorporation into RNA; read-out: HCV polymerase inhibitory activity IC50

Compound | IC50 [µM]
CCCC1CCCN(CCN2CCn3c(c(C4CCCCC4)c4ccc(C(=O)O)cc43)-c3ccc(C)cc32)C1 (centres unmarked) [Example 1-268, 13-cyclohexyl-3-methyl-5-[2-(3-propylpiperidin-1-yl)ethyl]-6,7-dihydro-5H-benzo[5,6][1,4]diazepino[7,1-a]indole-10-carboxylic acid dihydrochloride] | < 0.1
